Results reported in PMC1283537, “Systematic Discovery of New Recognition Peptides Mediating Protein Interaction Networks” (PLoS Biology, 2005).
Each block holds one sequence with its values, some of them ahead of it. Where no end group is shown, it is not given here.

Key:
[1] = test system: Cdlc2 (Dynein light chain 2); experiment: Fluorescence polarization binding of FITC-labelled peptides to Cdlc2; parameters: species or system Drosophila melanogaster; conditions: FITC-labelled peptide 10 nM, PBS pH 7.4, protein concentrations 5–400 μM
abl-SH3 domain = target: T1, abl-SH3 domain (Homo sapiens, UniProt P00519); experiment: Fluorescence polarization preliminary test with abl-SH3 binding peptide; conditions: FITC N-terminal labeled peptide
T1 construct: preparation of human abl-SH3 domain [9]; made in house
T1 sequence (P00519 61-121 limits assumed): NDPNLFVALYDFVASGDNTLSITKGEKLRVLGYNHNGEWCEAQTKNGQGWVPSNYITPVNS

Translin = target: T2, Translin (Drosophila melanogaster, UniProt Q7JVK6); experiment: Fluorescence polarization binding of FITC-labelled peptides to Translin; conditions: FITC N-terminal labeled peptide 10 nM in PBS pH 7.4, 5 min at room temperature, non-linear regression on three independent experiments
T2 sequence (Q7JVK6 1-235): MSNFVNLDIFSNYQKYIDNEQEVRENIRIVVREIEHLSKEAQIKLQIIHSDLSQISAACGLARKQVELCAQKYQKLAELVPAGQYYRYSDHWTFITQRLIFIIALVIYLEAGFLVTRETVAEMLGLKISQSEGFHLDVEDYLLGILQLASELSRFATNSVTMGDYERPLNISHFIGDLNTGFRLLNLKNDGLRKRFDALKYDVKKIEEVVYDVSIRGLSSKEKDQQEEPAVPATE

[2] = target: T3, protein phosphatase 1 (PP1) (Homo sapiens, UniProt P36873); experiment: Fluorescence polarization binding of FITC-labelled peptides to PP1; parameters: species or system H. sapiens
T3 construct: made in house; host or cells: E. coli BL21(DE3)
T3 sequence (P36873 whole entry): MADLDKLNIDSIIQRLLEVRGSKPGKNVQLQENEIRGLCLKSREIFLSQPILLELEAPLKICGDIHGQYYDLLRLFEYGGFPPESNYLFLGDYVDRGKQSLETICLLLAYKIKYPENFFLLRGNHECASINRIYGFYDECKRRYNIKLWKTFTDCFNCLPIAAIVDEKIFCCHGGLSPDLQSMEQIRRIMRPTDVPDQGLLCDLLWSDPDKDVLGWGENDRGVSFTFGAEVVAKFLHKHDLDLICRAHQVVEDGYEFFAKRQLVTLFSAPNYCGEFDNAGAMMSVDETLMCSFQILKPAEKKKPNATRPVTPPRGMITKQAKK

- binding to Cdlc2 [1]: No binding
Sequence: ERAAAAENA [mutant of the Cdlc2 native peptide, motif positions mutated to Alanine]

- binding to Cdlc2 [1]: No binding
Sequence: ERAIQTENA [CG33213/104-112, Cdlc2 native peptide with the IQTE variant motif]

Sequence: GAPTYSPPPPP [GAPTYSPPPPP]
- Kd (abl-SH3 domain): 3 ± 0.4 µM

- binding to Cdlc2 [1]: No binding
Sequence: PFGTQTSPP [CG32130/215-223, additional peptide containing the canonical TQT motif, reference compound]

- Kd (Translin): > 300 µM
Sequence: VSASPAAVAAPV (also: FITC label, position not given here) [Mutant]

- Kd ([2]; FITC N-terminal labeled peptide 10 nM in PBS pH 7.4, 5 min at room temperature, normalized to extrapolated Bmax, non-linear regression, three independent experiments): 65 ± 14 µM
- specific binding to PP1 ([2]; result in words): retain some affinity
Sequence: VSASPAAVAAPV [Mutant]
